Results published in patent publication US9586928B2 (The Scripps Research Institute, priority 2011, dated 2017).

Columns and labels:
RORα = target: T1, RORα (Homo sapiens, UniProt P35398); assay: Gal4-RORα LBD / UAS luciferase cotransfection assay; type: cell-based; settings: Gal4 chimeric cotransfection
T1 construct: expressed in transfected cells; host or cells: HEK293T
T1 sequence (P35398 272-510 limits assumed): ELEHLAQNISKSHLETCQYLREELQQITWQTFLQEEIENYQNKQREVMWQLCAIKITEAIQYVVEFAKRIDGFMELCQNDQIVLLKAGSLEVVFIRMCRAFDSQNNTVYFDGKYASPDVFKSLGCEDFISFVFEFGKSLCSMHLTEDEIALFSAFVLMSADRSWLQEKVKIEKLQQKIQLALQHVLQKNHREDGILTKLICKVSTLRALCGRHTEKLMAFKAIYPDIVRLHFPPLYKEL
Method: The cells were treated with either DMSO or various compounds as indicated four hours after replating. Following additional 20 hour incubation, luciferase levels were assayed by one-step addition of 20 μL BriteLite (Perkin Elmer) and read using an Envision multilabel plate reader (Perkin Elmer).
Cotransfection assays were performed as previously described in HEK293 cells (Gal4 cotransfection assay or IL-17 luciferase reporter)[8]. HEK293 and the mouse lymphoma EL4 (ATCC) cells were maintained in DMEM supplemented with 10% FBS plus antibiotics (penicillin and streptomycin; Invitrogen).

EL-4 cells = assay: Intracellular IL-17 in PMA/ionomycin stimulated EL-4 cells (flow cytometry); type: cell-based, murine; settings: 5 μM, compared to vehicle treated cells
Method: The treatment of EL4 with SR2211 repressed the Il17 gene expression to a greater extent as compared to digoxin. […] In order to measure the effect of SR2211 on IL-17 production, we determined the intracellular levels of IL-17 using flow cytometry. After the stimulation of EL-4 cells with PMA/ionomycin for 3 hr, the cells were treated with BD GolgiPlug™ (protein transport inhibitor) to allow intracellular accumulation of cytokines. After 2 hr, the cells were fixed and stained to analyze the IL-17 by flow cytometry.
For intracellular cytokine staining, cells were stimulated with PMA (50 ng/Ml) and lonomycin (1 ug/ml) for 5 hrs. After 3 hrs of incubation, BD Golgiplug (BD Bioscience) was added and incubated for 2 hrs. Then, cells were fixed, permeabilized, and stained with PEIL17A Ab (BD Biosciences). Cell sorting was performed using LSRII (BD Biosciences). • 1. Ivanov, I I; McKenzie, B. S.; Zhou, L.; Tadokoro, C. E.; Lepelley, A.; Lafaille, J. J.; Cua, D. J.; Littman, D. R. (2006) The orphan nuclear receptor RORgammat directs the differentiation program of proinflammatory IL-17+ T helper cells. Cell 126, 1121-1133. • 2. Nakae, S.; Nambu, A.; Sudo. K.; Iwakura. Y. (2003) Suppression of immune induction of collagen-induced arthritis in IL-17-deficient mice. J Immunol 171, 6173-6177. • 3. Jetten. […]

OC(c1ccc(-c2ccc(CN3CCN(Cc4ccncc4)CC3)cc2)c(F)c1)(C(F)(F)F)C(F)(F)F [SR2211, 1,1,1,3,3,3-hexafluoro-2-(2-fluoro-4′-((4-(pyridin-4-ylmethyl)piperazin-1-yl)methyl)-[1,1′-biphenyl]-4-yl)propan-2-ol]
effect on transcriptional activity of RORα (RORα): did not have any impact on the transcriptional activity of RORα | IL-17 intracellular staining (EL-4 cells): significant inhibition of IL-17 intracellular staining
